Target: SRPK1 (Homo sapiens, UniProt Q96SB4)
Test: SRPK1 assay, Method 2 (ADP-Glo luminescence)
Assay type: biochemical
Settings: Method 2 (asterisk): substrate Human SRSF1/SF2 0.15 μM, ATP 4 μM, 25° C. for 3 h, test compounds 100 nM top, 3-fold, 10 dose
Experimental: The SPRK1 assay was performed as follows:
Method 2: The assay buffer was prepared. The reference compound was diluted to 1 mM in the assay buffer. The test compounds were prepared at a concentration of 100 μM, then diluted 3-fold. Five nL of compounds/DMSO were transferred to 384-well plate. The reference compound is 1000 nM top concentration, 3-fold, 10 dose. The test compounds are 100 nM top concentration, 3-fold, 10 dose. 2.5 ul of enzyme (SRPK1 final concentration at […]) was added to each well, then the plate was spun down at 1000 rpm and centrifuged for 30 sec. After, 2.5 ul substrate (Human SRSF1/SF2 final concentration of 0.15 μM, ATP final concentration of 4 μM) was added to the plate, spun down at 1000 rpm and centrifuged for 30 sec. The plate was then placed in an incubator at 25° C. for 3 h. Then, 5 μl of ADP-Glo™ Reagent was added to each well, and the plate incubated at room temperature for 60 minutes. After 60 min, 10 μl of Kinase Detection Reagent was added to each well, and the plate was incubated at room temperature for 30 minutes. The luminescence of each well was recorded on Envision.
All assays were performed using Method 1, except where indicated with an asterisk (*) in the below table, indicating Method 2 was used. I.A. indicates an IC50 greater than 30 μM.

SRPK1, sequence (Q96SB4 whole entry): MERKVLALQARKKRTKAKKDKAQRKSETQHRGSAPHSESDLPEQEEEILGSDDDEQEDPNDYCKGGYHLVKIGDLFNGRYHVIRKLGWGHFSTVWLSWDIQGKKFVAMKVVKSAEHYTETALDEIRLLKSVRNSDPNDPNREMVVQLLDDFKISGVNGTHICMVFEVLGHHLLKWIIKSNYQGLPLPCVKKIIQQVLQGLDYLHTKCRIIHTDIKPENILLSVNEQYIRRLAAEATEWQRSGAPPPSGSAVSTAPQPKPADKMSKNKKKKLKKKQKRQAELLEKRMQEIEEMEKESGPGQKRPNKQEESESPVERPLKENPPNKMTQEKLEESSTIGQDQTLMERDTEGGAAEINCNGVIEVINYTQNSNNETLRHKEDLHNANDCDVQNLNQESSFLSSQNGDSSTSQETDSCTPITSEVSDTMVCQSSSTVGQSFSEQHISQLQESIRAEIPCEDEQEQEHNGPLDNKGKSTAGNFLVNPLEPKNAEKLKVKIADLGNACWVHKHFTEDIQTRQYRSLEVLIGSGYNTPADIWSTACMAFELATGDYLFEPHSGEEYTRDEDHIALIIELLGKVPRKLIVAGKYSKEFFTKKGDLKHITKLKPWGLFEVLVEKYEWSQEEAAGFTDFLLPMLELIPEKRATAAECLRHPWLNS

| SMILES | IC50 |
| --- | --- |
| O=C(Nc1cc(C(F)(F)F)cnc1N1CCC(O)CC1)c1ccc(-c2cn[nH]c2)cn1 [Compound 097, N-[2-(4-hydroxy-1-piperidyl)-5-(trifluoromethyl)-3-pyridyl]-5-(1H-pyrazol-4-yl)pyridine-2-carboxamide] | 3.23 nM |
| CC1(O)CCN(c2ncc(C3CC3)cc2NC(=O)c2ccc(-c3cn[nH]c3)o2)CC1 [Compound 095, N-[5-cyclopropyl-2-(4-hydroxy-4-methyl-1-piperidyl)-3-pyridyl]-5-(1H-pyrazol-4-yl) furan-2-carboxamide] | 0.769 nM |
| Nc1cc(-c2ccc(C(=O)Nc3cc(C4CC4)cnc3N3CCC(O)CC3)o2)cc(N)n1 [Compound 020] | 0.248 nM |
| O=C(Nc1cc(C2CC2)cnc1N1CCC(O)CC1)c1ccc(-c2ccnc(O)c2)o1 [Compound 022] | 1.4 nM |
| Nc1cc(-c2ccc(C(=O)Nc3cc(C4CC4)cnc3N3CCC(O)CC3)o2)ccn1 [Compound 018] | 0.942 nM |
| Nc1cc(-c2ccc(C(=O)Nc3cc(C(F)(F)F)cnc3N3CCC(O)CC3)o2)ccn1 [Compound 015] | 3.98 nM |
| O=C(Nc1cc(C2CC2)cnc1N1CCC(O)CC1)c1ccc(-c2cn[nH]c2)o1 [Compound 086] | 0.615 nM |
| CC1(C(N)=O)CCN(c2ncc(C(F)(F)F)cc2NC(=O)c2ccc(C3CCOCC3)o2)CC1 [Compound 048] | 24.9 nM |
| O=C(Nc1cc(C(F)(F)F)cnc1N1CCC(O)CC1)c1ccc(-c2cn[nH]c2)o1 [Compound 053] | 1.98 nM |

— US20260217693A1, “SRPK1 INHIBITORS AND METHODS OF USE” (ALLIANTHERA (SUZHOU) BIOPHARMACEUTICAL CO., LTD., priority 2023, published 2026)
